In ChEMBL document CHEMBL1201862, “PubChem BioAssay data set” (2004):
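96-well plates; 48 h exposure; 5 concentrations. Endpoints by linear interpolation between flanking doses. Not reached: highest tested concentration assigned. GI50: concentration for 50% inhibition of growth.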 Activity calls are given as the source filed them. Cut-off read from the data, not from the text of the source: active = GI50 up to about 1.1 µM and inactive = higher.

Tests used:
Assay in all cases: NCI anticancer screen, dose series, 48 h
MDA-MB-231 = test system: MDA-MB-231
HL-60 = test system: HL-60
HCT-116 = test system: HCT-116
SN12C = test system: SN12C
HOP-62 = test system: HOP-62
Hs-578T = test system: Hs-578T
HT-29 = test system: HT-29
SF-268 = test system: SF-268
NCI/ADR-RES = test system: NCI/ADR-RES
A498 = test system: A498
BT-549 = test system: BT-549
MDA-MB-435 = test system: MDA-MB-435
PC-3 = test system: PC-3
SF-539 = test system: SF-539
HCC 2998 = test system: HCC 2998
K562 = test system: K562

Row | SMILES | GI50 (MDA-MB-231) | GI50 (HL-60) | GI50 (HCT-116) | GI50 (SN12C) | GI50 (HOP-62) | GI50 (Hs-578T) | GI50 (HT-29) | GI50 (SF-268) | GI50 (NCI/ADR-RES) | GI50 (A498) | GI50 (BT-549) | GI50 (MDA-MB-435) | GI50 (PC-3) | GI50 (SF-539) | GI50 (HCC 2998) | GI50 (K562)
1 | NC(=O)Cc1nc2c(N)ncnc2n1C1OC(CO)C(O)C1O (stereo not drawn) | > 100 µM (inactive) | > 100 µM (inactive) | > 100 µM (inactive) | > 100 µM (inactive) | > 100 µM (inactive) | > 100 µM (inactive) | > 100 µM (inactive) | > 100 µM (inactive) | > 100 µM (inactive) | > 100 µM (inactive) | > 100 µM (inactive) | > 100 µM (inactive) | > 100 µM (inactive) | > 100 µM (inactive) | > 100 µM (inactive) | > 100 µM (inactive)
2 | NC(Cc1cccc([N+](=O)[O-])c1)C(=O)O (stereo not drawn) | > 100 µM (inactive) | > 100 µM (inactive) | > 100 µM (inactive) | > 100 µM (inactive) | > 100 µM (inactive) | > 100 µM (inactive) | > 100 µM (inactive) | > 100 µM (inactive) | > 100 µM (inactive) | > 100 µM (inactive) | > 100 µM (inactive) | > 100 µM (inactive) | > 100 µM (inactive) | > 100 µM (inactive) | > 100 µM (inactive) | > 100 µM (inactive)
3 | COCCOCCOC1=C(Cl)C(=O)c2c(O)ccc(O)c2C1=O | 2.01 µM (inactive) | 0.207 µM (active) | 0.923 µM (active) | 1.89 µM (inactive) | 2.39 µM (inactive) | 3.11 µM (inactive) | 3.48 µM (inactive) | 2.59 µM (inactive) | 2.93 µM (inactive) | 3.59 µM (inactive) | 2.15 µM (inactive) | 1.74 µM (inactive) | 5.42 µM (inactive) | 1.67 µM (inactive) | 18.6 µM (inactive) | 1.21 µM (inactive)
4 | OC1=C(c2ccccc2)C2=NCCN2c2ccccc21 | > 100 µM (inactive) | 45.5 µM (inactive) | 34.7 µM (inactive) | > 100 µM (inactive) | 31.8 µM (inactive) | 28.1 µM (inactive) | 55.2 µM (inactive) | 45.9 µM (inactive) | 52.6 µM (inactive) | 98.4 µM (inactive) | 95.7 µM (inactive) | 39.1 µM (inactive) | 38.1 µM (inactive) | 43.8 µM (inactive) | 41.1 µM (inactive) | 21.8 µM (inactive)
5 | O=c1[nH]nc(Cc2ccccc2)n1/N=C/c1ccc([N+](=O)[O-])cc1 | > 100 µM (inactive) | > 100 µM (inactive) | > 100 µM (inactive) | > 100 µM (inactive) | > 100 µM (inactive) | > 100 µM (inactive) | > 100 µM (inactive) | > 100 µM (inactive) | > 100 µM (inactive) | > 100 µM (inactive) | > 100 µM (inactive) | > 100 µM (inactive) | > 100 µM (inactive) | > 100 µM (inactive) | > 100 µM (inactive) | > 100 µM (inactive)
6 | C/C(=C1\C(=O)C(c2ccccc2)N(c2ccccc2)C1=O)c1ccc(Cl)cc1 (stereo not drawn) | 22.3 µM (inactive) | 28.6 µM (inactive) | 16.4 µM (inactive) | 30.7 µM (inactive) | 23.1 µM (inactive) | 18.7 µM (inactive) | 17.4 µM (inactive) | 18.7 µM (inactive) | 29.1 µM (inactive) | 16.7 µM (inactive) | 19.8 µM (inactive) | 17.4 µM (inactive) | 14.3 µM (inactive) | 21.3 µM (inactive) | 36.6 µM (inactive) | 30.1 µM (inactive)
7 | CN1CCC[N+](C)=C1c1ccccc1 | > 100 µM (inactive) | > 100 µM (inactive) | > 100 µM (inactive) | > 100 µM (inactive) | > 100 µM (inactive) | > 100 µM (inactive) | > 100 µM (inactive) | > 100 µM (inactive) | > 100 µM (inactive) | 37.2 µM (inactive) | > 100 µM (inactive) | > 100 µM (inactive) | > 100 µM (inactive) | > 100 µM (inactive) | > 100 µM (inactive) | > 100 µM (inactive)
8 | COC1C(O)C(C)OC(O[C@@H]2C[C@H]3CC[C@@H]4[C@H](CC[C@]5(C)[C@@H](C6=CC(=O)OC6)CC[C@]45O)[C@@]3(C)[C@H](O)C2)C1O (stereo partly drawn) | 0.313 µM (active) | < 0.04 µM (active) | < 0.0225 µM (active) | < 0.01 µM (active) | 0.0333 µM (active) | 0.182 µM (active) | 0.0849 µM (active) | < 0.0272 µM (active) | < 0.0443 µM (active) | 0.0525 µM (active) | < 0.0246 µM (active) | 0.0883 µM (active) | 0.0755 µM (active) | < 0.01 µM (active) | 0.719 µM (active) | 0.0785 µM (active)
